Reference: US5965718A, “Analogs of sarcodictyin and eleutherobin” (priority 1998, dated 1999)
“Also recorded” adds a separate entry of the source.

Tests used:
[1] = system: tubulin; ovarian cancer cells (1A9, 1A9PTX10, 1A9PTX22); conditions: in words; for biological activity (tubulin polymerization and/or cytotoxicity), SAR statement: compared with natural products 7 and 8; for biological activity on modification of the alcohol component of the ester group: compared with the methyl ester (compound 600)
Experimental: (§1) FIG. 21 tabulates cytotoxicity data of sarcodictyins with the following tubulin polymerization and cytotoxicity properties of sarcodictyins: (a) The tubulin polymerization measurements were performed at 37° C. except for adjustments in drug concentration ([…]) and incubation time (90 min). (b) The cytotoxicity experiments were carried out as previously described (Giannakakou et al. J. Biol. Chem. 1995, 272, 17118-17125; Nicolaou et al. Angew. Chem. Int. Ed. Engl. 1997, 36, 2097-2103).
(§2) The synthesized sarcodictyin library (shown in FIG. 20) was screened for induction of tubulin polymerization using the filtration calorimetric assay and […] at 37° C. (results are listed in FIG. 20; Bollag et al. Cancer Res. 1995, 55, 2325-2333). These investigations were then followed by cytotoxicity studies with ovarian cancer cells (1A9) including two taxol-resistant lines (1A9PTX10 and 1A9PTX22; Giannakakou et al. J. Biol. Chem. 1995, 272, 17118-17125). The data reveal a number of important structure activity relationships (SARs).

[2] = system: tubulin; assay: induction of tubulin polymerization, filtration calorimetric assay; assay type: biochemical; conditions: 100 m compound at 37° C.; in words, compared with sarcodictyins A (7) and B (8); figures only in FIG. 20
Experimental: as §1, §2

[3] = system: ovarian cancer cells (1A9); assay type: cell-based; conditions: 1A9 and taxol-resistant lines; in words, compared with natural substances 7 and 8; figures only in FIG. 21
Experimental: as §1, §2

[4] = system: taxol-resistant lines (1A9PTX10 and 1A9PTX22); assay: cytotoxicity against taxol-resistant tumor cell lines; assay type: cell-based; conditions: in words
Experimental: as §1, §2

Compound | biological activity (tubulin polymerization and/or cytotoxicity), SAR statement [1] | tubulin polymerization properties / potencies [2] | cytotoxicity potency [3] | cytotoxicity / biological activity against the taxol-resistant cell lines [4] | biological activity on modification of the alcohol component of the ester group [1]
COC(=O)/C1=C/[C@@H]2[C@@H](C(C)C)CC=C(C)[C@@H]2C[C@H](OC(=O)/C=C/c2ccccn2)[C@]2(C)C=C[C@@]1(OC)O2 [Compound 480] | considerable loss of activity | – | – | – | –
COC(=O)/C1=C/[C@@H]2[C@@H](C(C)C)CC=C(C)[C@@H]2C[C@H](OC(=O)/C=C/c2csc(C)n2)[C@]2(C)C=C[C@@]1(OC)O2 [Compound 490] | considerable loss of activity | – | – | – | –
CCOC(=O)/C1=C/[C@@H]2[C@@H](C(C)C)CC=C(C)[C@@H]2C[C@H](OC(=O)/C=C/c2coc(C)n2)[C@]2(C)C=C[C@@]1(OC)O2 [Compound 500] | considerable loss of activity | – | – | – | –
COC(=O)C1=CC2C(CC(OC(=O)/C=C/c3cn(C)cn3)C3(C)C=CC1(OC)O3)C(C)=CCC2C(C)C (stereo not drawn) [Compound 600] | equal or superior biological activities | superior tubulin polymerization properties to those of either sarcodictyins A (7) or B (8) | potencies comparable or higher that those of the natural substances | Particularly striking; also recorded: enhanced biological activity | –
CCOC(=O)C1=CC2C(CC(OC(=O)/C=C/c3cn(C)cn3)C3(C)C=CC1(OC)O3)C(C)=CCC2C(C)C (stereo not drawn) [Compound 610] | equal or superior biological activities | not always in line with their cytotoxicity effects | potencies comparable or higher that those of the natural substances | Particularly striking; also recorded: enhanced biological activity | enhancement of the biological activity
CO[C@]12C=C[C@](C)(O1)[C@@H](OC(=O)/C=C/c1cn(C)cn1)C[C@H]1C(C)=CC[C@H](C(C)C)[C@H]1/C=C\2C(=O)OCCCl [Compound 630] | equal or superior biological activities | – | potencies comparable or higher that those of the natural substances | – | reversal of the trend
CO[C@]12C=C[C@](C)(O1)[C@@H](OC(=O)/C=C/c1cn(C)cn1)C[C@H]1C(C)=CC[C@H](C(C)C)[C@H]1/C=C\2C(=O)OCCCCc1ccccc1 [Compound 660] | – | modest | cytotoxicity comparable to, or better than, the natural products | – | –
CCCCOC(=O)/C1=C/[C@@H]2[C@@H](C(C)C)CC=C(C)[C@@H]2C[C@H](OC(=O)/C=C/c2cn(C)cn2)[C@]2(C)C=C[C@@]1(OC)O2 [Compound 670] | – | – | – | Particularly striking | –
CCCOC(=O)/C1=C/[C@@H]2[C@@H](C(C)C)CC=C(C)[C@@H]2C[C@H](OC(=O)/C=C/c2cn(C)cn2)[C@]2(C)C=C[C@@]1(OC)O2 [Compound 680] | – | – | – | Particularly striking | enhancement of the biological activity
CO[C@]12C=C[C@](C)(O1)[C@@H](OC(=O)/C=C/c1cn(C)cn1)C[C@H]1C(C)=CC[C@H](C(C)C)[C@H]1/C=C\2C(=O)OCCOCc1ccccc1 [Compound 690] | – | modest | cytotoxicity comparable to, or better than, the natural products | – | –
C=CCOC(=O)/C1=C/[C@@H]2[C@@H](C(C)C)CC=C(C)[C@@H]2C[C@H](OC(=O)/C=C/c2cn(C)cn2)[C@]2(C)C=C[C@@]1(OC)O2 [Compound 700] | – | not always in line with their cytotoxicity effects | – | – | enhancement of the biological activity
CO[C@]12C=C[C@](C)(O1)[C@@H](OC(=O)/C=C/c1cn(C)cn1)C[C@H]1C(C)=CC[C@H](C(C)C)[C@H]1/C=C\2C(=O)OCCC(C)C [Compound 710] | – | – | – | – | reversal of the trend
COC(OC)/C1=C/[C@@H]2[C@@H](C(C)C)CC=C(C)[C@@H]2C[C@H](OC(=O)/C=C/c2cn(C)cn2)[C@]2(C)C=C[C@@]1(OC)O2 [Compound 730] | – | – | potencies comparable or higher that those of the natural substances | Particularly striking | –
CCCOC(=O)/C1=C/[C@@H]2[C@@H](C(C)C)CC=C(C)[C@@H]2C[C@H](OC(=O)/C=C/c2cn(C)cn2)[C@]2(C)C=C[C@@]1(OCC(F)(F)F)O2 [Compound 840] | – | – | overall decrease of cytotoxicity | – | –
CCO[C@]12C=C[C@](C)(O1)[C@@H](OC(=O)/C=C/c1cn(C)cn1)C[C@H]1C(C)=CC[C@H](C(C)C)[C@H]1/C=C\2C(=O)OC [Compound 850] | equal or superior biological activities | superior tubulin polymerization properties to those of either sarcodictyins A (7) or B (8) | potencies comparable or higher that those of the natural substances | Particularly striking | –
CO[C@]12C=C[C@](C)(O1)[C@@H](OC(=O)/C=C/c1cn(C)cn1)C[C@H]1C(C)=CC[C@H](C(C)C)[C@H]1/C=C\2C(=O)OCc1c2ccccc2cc2ccccc12 [Compound 920] | equal or superior biological activities | modest | – | Particularly striking | –
COC(=O)/C1=C/[C@@H]2[C@@H](C(C)C)CC=C(C)[C@@H]2C[C@H](OC(=O)/C=C/c2ccccc2)[C@]2(C)C=C[C@@]1(OC)O2 [Compound 990] | only negligible biological activity | – | – | – | –
COC(=O)/C1=C/[C@@H]2[C@@H](C(C)C)CC=C(C)[C@@H]2C[C@H](OC(=O)Nc2ccccc2)[C@]2(C)C=C[C@@]1(OC)O2 [Compound 1010] | complete loss of activity | – | – | – | –
COC(=O)/C1=C/[C@@H]2[C@@H](C(C)C)CC=C(C)[C@@H]2C[C@H](OC(C)=O)[C@]2(C)C=C[C@@]1(OC)O2 [Compound 1070] | complete loss of activity | – | – | – | –
CO[C@]12C=C[C@](C)(O1)[C@@H](OC(=O)/C=C/c1cn(C)cn1)C[C@H]1C(C)=CC[C@H](C(C)C)[C@H]1/C=C\2CO[C@@H]1OC[C@@H](O)[C@@H](O)[C@@H]1OC(C)=O [eleutherobin] | potent biological actions | – | – | – | –
